ChEMBL document CHEMBL1201862, “PubChem BioAssay data set” (2004)
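Cultured in 96-well plates, cells were exposed to test compound for 48 hours across five concentrations. At the GI50, growth is halved.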 Active and inactive are the calls of the source. No stated cut-off is given here; in the data, active = GI50 up to about 1.1 µM and inactive = higher.

Assays:
Experiment in all cases: NCI tumour cell line growth inhibition, 48 h
[1] = test system: SN12C
[2] = test system: A498
[3] = test system: SF-268
[4] = test system: OVCAR-8
[5] = test system: MDA-MB-435
[6] = test system: M14
[7] = test system: U-251
[8] = test system: 786-0
[9] = test system: UACC-62
[10] = test system: PC-3
[11] = test system: MCF7
[12] = test system: Hs-578T
[13] = test system: K562
[14] = test system: HL-60
[15] = test system: SW-620
[16] = test system: NCI-H226
[17] = test system: KM12
[18] = test system: TK-10
[19] = test system: MDA-MB-231
[20] = test system: UO-31
[21] = test system: T47D
[22] = test system: XF498
[23] = test system: DMS-273
[24] = test system: HOP-62
[25] = test system: SF-295
[26] = test system: M19-MEL
[27] = test system: HOP-92
[28] = test system: NCI-H522
[29] = test system: SK-MEL-28
[30] = test system: OVCAR-5
[31] = test system: NCI-H23
[32] = test system: SK-MEL-2
[33] = test system: RXF 393
[34] = test system: HCC 2998
[35] = test system: A549
[36] = test system: SNB-19
[37] = test system: HCT-15
[38] = test system: MOLT-4
[39] = test system: OVCAR-3
[40] = test system: IGROV-1
[41] = test system: LOX IMVI
[42] = test system: RPMI-8226
[43] = test system: DLD-1
[44] = test system: DU-145
[45] = test system: OVCAR-4
[46] = test system: UACC-257
[47] = test system: DMS-114
[48] = test system: LXFL 529
[49] = test system: HCT-116
[50] = test system: SNB-78
[51] = test system: MDA-N
[52] = test system: Malme-3M
[53] = test system: SF-539
[54] = test system: KM-20L2
[55] = test system: SK-OV-3
[56] = test system: SNB-75
[57] = test system: CAKI-1
[58] = test system: CCRF-CEM
[59] = test system: SR
[60] = test system: BT-549
[61] = test system: HT-29
[62] = test system: COLO 205
[63] = test system: EKVX
[64] = test system: ACHN
[65] = test system: NCI-H460
[66] = test system: RXF 631
[67] = test system: NCI/ADR-RES
[68] = test system: SK-MEL-5

With `COC1=C(N=[N+]=[N-])C(=O)c2ncccc2C1=O` the GI50 [1] was 15.5 µM (inactive), the GI50 [2] was 17.1 µM (inactive) and the GI50 [3] was 14.5 µM (inactive). The GI50 [4] was 3.47 µM (inactive), the GI50 [5] was 2.12 µM (inactive) and the GI50 [6] was 3.73 µM (inactive). The GI50 [7] was 14.6 µM (inactive), the GI50 [8] was 8.79 µM (inactive) and the GI50 [9] was 7.82 µM (inactive). The GI50 [10] was 15.5 µM (inactive), the GI50 [11] was 1.82 µM (inactive) and the GI50 [12] was 18.5 µM (inactive). The GI50 [13] was 2.84 µM (inactive), the GI50 [14] was 0.962 µM (active) and the GI50 [15] was 1.95 µM (inactive). The GI50 [16] was 19.2 µM (inactive), the GI50 [17] was 15.6 µM (inactive) and the GI50 [18] was 10.9 µM (inactive). For the same compound, the GI50 [19] was 12.4 µM (inactive), the GI50 [20] was 14.4 µM (inactive) and the GI50 [21] was 2.13 µM (inactive). For the same compound, the GI50 [22] was 4.74 µM (inactive), the GI50 [23] was 12.9 µM (inactive) and the GI50 [24] was 15.8 µM (inactive). The GI50 [25] was 15.6 µM (inactive), the GI50 [26] was 1.91 µM (inactive) and the GI50 [27] was 1.29 µM (inactive). For the same compound, the GI50 [28] was 1.9 µM (inactive), the GI50 [29] was 14.3 µM (inactive) and the GI50 [30] was 19.5 µM (inactive). For the same compound, the GI50 [31] was 5.36 µM (inactive), the GI50 [32] was 18.6 µM (inactive) and the GI50 [33] was 3.75 µM (inactive). The GI50 [34] was 17.1 µM (inactive), the GI50 [35] was 16.6 µM (inactive) and the GI50 [36] was 17.1 µM (inactive). The GI50 [37] was 7.83 µM, the GI50 [38] was 0.887 µM (active) and the GI50 [39] was 5.57 µM (inactive). The GI50 [40] was 5.38 µM (inactive), the GI50 [41] was 3.3 µM (inactive) and the GI50 [42] was 1.88 µM (inactive). The GI50 [43] was 1.65 µM (inactive), the GI50 [44] was 20.8 µM (inactive) and the GI50 [45] was 2.69 µM (inactive). For the same compound, the GI50 [46] was 4.34 µM (inactive), the GI50 [47] was 6.85 µM (inactive) and the GI50 [48] was 1.72 µM (inactive). For the same compound, the GI50 [49] was 2.65 µM (inactive), the GI50 [50] was 5.7 µM (inactive) and the GI50 [51] was 1.95 µM (inactive). For the same compound, the GI50 [52] was 2.33 µM (inactive), the GI50 [53] was 16 µM (inactive) and the GI50 [54] was 18.5 µM (inactive). For the same compound, the GI50 [55] was 15.2 µM (inactive), the GI50 [56] was 13.1 µM (inactive) and the GI50 [57] was 5.58 µM (inactive). For the same compound, the GI50 [58] was 0.401 µM (active), the GI50 [59] was 2.36 µM (inactive) and the GI50 [60] was 10.8 µM (inactive). The GI50 [61] was 18.4 µM (inactive), the GI50 [62] was 3.04 µM (inactive) and the GI50 [63] was 8.61 µM (inactive). The GI50 [64] was 4.28 µM (inactive), the GI50 [65] was 15.7 µM (inactive) and the GI50 [66] was 16.3 µM (inactive). For the same compound, the GI50 [67] was 10 µM (inactive) and the GI50 [68] was 10.1 µM (inactive).
